The text below walks through data of patent publication US9394290B2, “Selective CYP11B1 inhibitors for the treatment of cortisol dependent diseases” (UNIVERSITAET DES SAARLANDES CAMPUS SAARBRUECKEN, priority 2010, dated 2016).

The target in one assay is human CYP11B1 (Homo sapiens (Human), UniProt P15538). The experiment in a line: Cellular assay for CYP11B1 inhibition (V79MZh11B1 hamster fibroblasts, substrate 11-deoxycorticosterone). The following applies: for sf: selectivity factor: IC50 (CYP11B2)/IC50 (CYP11B1): ratio IC50 (CYP11B2)/IC50 (CYP11B1); for pIC50: read-out: IC50 value CYP11B1, Hamster fibroblasts expressing human CYP11B1, substrate 11-deoxycorticosterone, 100 nM, mean of at least three experiments.

The target in the next assay is human CYP11B2 (Homo sapiens (Human), UniProt P19099). Nature of the assay: Cellular assay for CYP11B2 inhibition (V79MZh11B2 hamster fibroblasts, substrate 11-deoxycorticosterone). The following applies: for pIC50: read-out: IC50 value CYP11B2, Hamster fibroblasts expressing human CYP11B2, 100 nM, mean of at least three experiments, n.i. = no inhibition at an inhibitor concentration of 500 nM.

The next assay deals with human CYP17 (Homo sapiens (Human), UniProt P05093). Nature of the assay: CYP17 inhibition assay (membrane fraction of E. coli expressing human CYP17, substrate progesterone). The format is biochemical. The conditions noted are these: 25 μM, inhibitor concentration 2.0 μM, read-out: inhibition (%) CYP 17. How it is done: Recombinant E. coli pJL17/OR coexpressing human CYP17 and rat NADPH-P450-reductase were grown and stored as described by Ehmer et al. (J. Steroid Biochem. Mol. Biol., 2000, 75, 57-63)
For isolation of membrane fractions, 5 ml of bacterial suspension with an OD578 of 50 were washed using phosphate buffer (0.05 M, pH 7.4, 1 mM MgCl2, 0.1 mM EDTA and 0.1 mM dithiothreitol). Bacteria were harvested by centrifugation (2000×g) and the pellet was resuspended in 10 ml ice-cold TES buffer (0.1 M tris-acetate, pH 7.8, 0.5 mM EDTA, 0.5 M sucrose). Lysozyme was added with 10 ml of ice-cold water resulting in a concentration of 0.2 mg/ml followed by incubation for 30 min on ice with continuous shaking. Spheroplasts were harvested by centrifugation (12000×g, 10 min), and resuspended in 4 ml of ice-cold phosphate buffer (the same as described above plus 0.5 mM phenylmethylsulfonylfluoride (PMSF)).
After that spheroplasts were sonicated on ice (pulse 20 s on, 30 s off, five times), using a sonicator Sonopuls HD60 (Bandelin, Berlin, Germany) at maximum power. Unbroken cells and debris were pelleted at 3000×g for 7 min, and the supernatant was centrifuged at 50000×g for 20 min at 4° C. The membrane pellet was resuspended in 2 ml of phosphate buffer (the same as described above) with 20% glycerol using an ultra-turrax T25 (IKA-Labortechnik, Staufen, Germany). Protein concentration was determined by the method of Lowry.
The assay was performed as follows: a solution of 6.25 nmol progesterone (in 5 μl methanol) in 140 μl phosphate buffer (0.05 M, pH 7.4, 1 mM MgCl2, 0.1 mM EDTA and 0.1 mM dithiothreitol), 50 μl NADPH generating system (in phosphate buffer with 10 mM NADP, 100 mM glucose-6-phosphate and 2.5 units of glucose-6-phosphate-dehydrogenase) and inhibitor (in 5 μl DMSO) was pre-incubated at 37° C. for 5 min. Control cups were supplemented with 5 μl DMSO without inhibitor. The reaction was started by adding 50 μl of a 1:5 diluted membrane suspension in phosphate buffer (0.8-1.0 mg protein per ml). The maximum DMSO concentration in each sample was 2%. After mixing, incubation was performed for 30 min at 37° C. Subsequently the reaction was stopped with 50 μl 1 N HCl.
Extraction of the steroids was performed by addition of 1.0 ml ethyl acetate and vigorous shaking for 1 min. After a centrifugation step (5 min, 2500×g) the organic phase (0.9 ml) was transferred into a fresh cup containing 0.25 ml of incubation buffer and 50 μl 1 N HCl and mixed again. After centrifugation, 0.8 ml ethyl acetate solution was evaporated to dryness in a fresh cup. After that the steroids were redissolved in solvent for HPLC analysis (Hutschenreuter et. al. J. Enz. Inhib. Med. Chem. 2004, 19, 17-32).
The above experiment was conducted at least three times and a mean value for the CYP17 inhibition calculated.

pIC50: −log10 of the molar value.

human CYP11B1, sequence (P15538 25-503): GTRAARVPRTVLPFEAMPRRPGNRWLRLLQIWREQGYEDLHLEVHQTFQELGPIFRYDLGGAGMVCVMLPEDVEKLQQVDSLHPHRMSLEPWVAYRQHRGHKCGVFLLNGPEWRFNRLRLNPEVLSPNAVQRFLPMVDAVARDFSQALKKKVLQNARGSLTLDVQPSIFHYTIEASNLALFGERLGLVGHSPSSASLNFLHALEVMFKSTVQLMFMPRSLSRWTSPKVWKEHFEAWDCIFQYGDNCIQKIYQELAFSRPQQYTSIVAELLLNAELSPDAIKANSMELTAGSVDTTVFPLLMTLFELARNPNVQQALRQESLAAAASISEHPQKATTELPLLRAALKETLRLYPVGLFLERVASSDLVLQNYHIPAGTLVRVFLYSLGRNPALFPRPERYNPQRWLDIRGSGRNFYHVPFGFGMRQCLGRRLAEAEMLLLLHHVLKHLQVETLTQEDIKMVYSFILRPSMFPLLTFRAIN
human CYP11B2, sequence (P19099 25-503): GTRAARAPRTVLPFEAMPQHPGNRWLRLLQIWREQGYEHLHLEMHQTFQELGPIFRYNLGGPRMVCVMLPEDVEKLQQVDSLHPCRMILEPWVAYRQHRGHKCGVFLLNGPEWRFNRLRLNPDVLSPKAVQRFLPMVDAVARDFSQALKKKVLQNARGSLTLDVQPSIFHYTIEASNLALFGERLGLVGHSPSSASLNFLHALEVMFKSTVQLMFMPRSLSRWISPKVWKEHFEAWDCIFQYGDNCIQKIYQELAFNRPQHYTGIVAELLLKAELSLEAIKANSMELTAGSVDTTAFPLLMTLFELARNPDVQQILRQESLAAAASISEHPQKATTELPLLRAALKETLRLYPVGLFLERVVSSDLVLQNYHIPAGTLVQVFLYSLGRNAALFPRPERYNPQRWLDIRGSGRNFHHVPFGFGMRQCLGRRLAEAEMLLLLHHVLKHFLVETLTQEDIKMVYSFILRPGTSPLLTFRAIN
human CYP17, sequence (P05093 whole entry): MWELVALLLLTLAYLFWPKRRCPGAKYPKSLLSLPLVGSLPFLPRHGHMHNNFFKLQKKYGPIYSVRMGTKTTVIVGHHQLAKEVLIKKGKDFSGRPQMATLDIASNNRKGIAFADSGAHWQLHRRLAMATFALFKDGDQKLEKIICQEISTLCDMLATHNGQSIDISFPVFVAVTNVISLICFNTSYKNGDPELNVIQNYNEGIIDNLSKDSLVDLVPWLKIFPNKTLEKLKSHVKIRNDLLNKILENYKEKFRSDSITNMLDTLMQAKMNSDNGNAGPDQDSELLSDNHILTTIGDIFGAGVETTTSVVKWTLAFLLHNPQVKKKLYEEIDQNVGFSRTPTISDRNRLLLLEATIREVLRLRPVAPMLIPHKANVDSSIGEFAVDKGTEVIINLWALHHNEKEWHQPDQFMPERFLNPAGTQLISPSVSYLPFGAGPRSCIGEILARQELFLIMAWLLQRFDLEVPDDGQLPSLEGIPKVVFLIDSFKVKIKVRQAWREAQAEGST

On to `c1ccc(-c2ccc(Cn3ccnc3)cn2)cc1` [Compound 1, 5-Imidazol-1-ylmethyl-2-phenyl-pyridine], for which, at human CYP11B1, the “sf: selectivity factor: IC50 (CYP11B2)/IC50 (CYP11B1)” value (“sf: selectivity factor: IC50” for short) came to 18 and the pIC50 was 6.82. Moreover, on human CYP11B2, the pIC50 is 5.56.
Take `Brc1ccc(Cn2ccnc2)cn1` [Compound 1a, 5-Imidazol-1-ylmethyl-2-bromopyridine]: the values for the pIC50 at human CYP11B1 and at human CYP11B2 were 6.30 and below 6.00, respectively.
Taken in the same sequence, the figures for `c1cc(Cn2ccnc2)ccn1` [Compound 2, 4-Imidazol-1-ylmethyl-pyridine] were 6.18 and below 6.00.
The like results for `c1cncc(Cn2ccnc2)c1` [Compound 3, 3-Imidazol-1-ylmethyl-pyridine] were, in that order, 6.09 and below 6.00.
Taken in the same sequence, the figures for `N#Cc1ncccc1Cn1ccnc1` [Compound 4, 3-Imidazol-1-ylmethyl-pyridine-2-carbonitrile] were 6.01 and below 6.00.
For the compound `Clc1ncc(Cn2ccnc2)cc1Br` [Compound 6, 3-Bromo-2-chloro-5-imidazol-1-ylmethyl-pyridine], at human CYP11B1, the “sf: selectivity factor: IC50” value is listed as 3.4 and the pIC50 was 6.77. The pIC50 at human CYP11B2 was 6.24.
With `Fc1cccc(-c2ccc(Cn3ccnc3)cn2)c1` [Compound 8, 2-(3-Fluoro-phenyl)-5-imidazol-1-ylmethyl-pyridine], the pIC50 at human CYP11B1 was 6.49; at human CYP11B2, below 6.00. In addition, at human CYP17, the inhibition (in general, the share of the control response that was lost under treatment) at 2 µM is 1%.
As for `Fc1ccc(-c2ccc(Cn3ccnc3)cn2)cc1` [Compound 9, 2-(4-Fluoro-phenyl)-5-imidazol-1-ylmethyl-pyridine], the “sf: selectivity factor: IC50” value at human CYP11B1 came out at 10. The pIC50 on human CYP11B1 is 6.67; on human CYP11B2, 5.67. The inhibition at 2 µM on human CYP17 turned out to be 5%.
The like results for `Fc1ccc(-c2ccc(Cn3ccnc3)cn2)cc1F` [Compound 10, 2-(3,4-Difluoro-phenyl)-5-imidazol-1-ylmethyl-pyridine] were, in that order, 5, 6.48, 5.78 and 0%.
For `COc1ccc(-c2ccc(Cn3ccnc3)cn2)cc1` [Compound 13, 5-Imidazol-1-ylmethyl-2-(4-methoxy-phenyl)pyridine], the pIC50 on human CYP11B1 is 6.11; on human CYP11B2, below 6.00. The inhibition at 2 µM on human CYP17 came out at 0%.
Taken in the same sequence, the figures for `COc1ccc(-c2ccc(Cn3ccnc3)cn2)cc1OC` [Compound 14, 2-(3,4-Dimethoxy-phenyl)-5-imidazol-1-ylmethyl-pyridine] were below 6.00, below 6.00 and 2%.
Turning to `N#Cc1cccc(-c2ccc(Cn3ccnc3)cn2)c1` [Compound 19, 3-(5-Imidazol-1-ylmethyl-pyridin-2-yl)-benzonitrile], the values for the pIC50 at human CYP11B1 and at human CYP11B2 were 6.39 and below 6.00, respectively.
`N#Cc1ccc(-c2ccc(Cn3ccnc3)cn2)cc1` [Compound 20, 4-(5-Imidazol-1-ylmethyl-pyridin-2-yl)-benzonitrile]: the pIC50 was 6.11 on human CYP11B1 and below 6.00 on human CYP11B2.
Consider `O=Cc1ccc(-c2ccc(Cn3ccnc3)cn2)cc1` [Compound 21, 4-(5-Imidazol-1-ylmethyl-pyridin-2-yl)-benzaldehyde], for which the pIC50 on human CYP11B1 was 6.61; on human CYP11B2, below 6.00. Besides, the inhibition at 2 µM at human CYP17 was 0%.
Turning to `c1ccc2cc(-c3ccc(Cn4ccnc4)cn3)ccc2c1` [Compound 24, 5-Imidazol-1-ylmethyl-2-naphthalen-2-yl-pyridine], the “sf: selectivity factor: IC50” value on human CYP11B1 is given as 3.2. Moreover, the pIC50 at human CYP11B1 is 6.61; at human CYP11B2 it was 6.11.
Taken in the same sequence, the figures for `c1cncc(-c2ccc(Cn3ccnc3)cn2)c1` [Compound 26, 5-Imidazol-1-ylmethyl-[2,3′]bipyridinyl] were 8, 6.30 and 5.40.
The like results for `c1cc(-c2ccc(Cn3ccnc3)cn2)ccn1` [Compound 27, 5-Imidazol-1-ylmethyl-[2,4′]bipyridinyl] were, in that order, 3.5, 6.86 and 6.31.
Regarding `c1cn(Cc2ccc(-c3cncnc3)nc2)cn1` [Compound 28, 5-(5-Imidazol-1-ylmethyl-pyridin-2-yl)-pyrimidine], at human CYP11B1, the pIC50 is 6.01. In addition, the “IC50 value CYP11B2” value on human CYP11B2 (Hamster fibroblasts expressing human CYP11B2, 100 nM, mean of at least three experiments, n.i. = no inhibition at an inhibitor concentration of 500 nM) is “n.i.^d”.
Turning to `COc1ccc(-c2ccc(Cn3ccnc3)cn2)cn1` [Compound 29, 5-Imidazol-1-ylmethyl-6′-methoxy-[2,3′]bipyridinyl], the pIC50 at human CYP11B1 and on human CYP11B2 was below 6.00 each time.
`c1ccc2c(-c3ccc(Cn4ccnc4)cn3)cncc2c1` [Compound 30, 4-(5-Imidazol-1-ylmethyl-pyridin-2-yl)-isoquinoline]: the “sf: selectivity factor: IC50” value on human CYP11B1 is 10. The pIC50 was 7.02 at human CYP11B1 and 6.04 on human CYP11B2.
Consider `Clc1ccc(-c2ccc(Cn3ccnc3)cn2)s1` [Compound 33, 2-(5-Chloro-thiophen-2-yl)-5-imidazol-1-ylmethyl-pyridine], for which the “sf: selectivity factor: IC50” value at human CYP11B1 was 2.6. Also, the figures for the pIC50 on human CYP11B1 and at human CYP11B2 were 6.44 and 6.03, respectively.
The like results for `c1ccc2sc(-c3ccc(Cn4ccnc4)cn3)cc2c1` [Compound 37, 2-Benzo[b]thiophen-2-yl-5-imidazol-1-ylmethyl-pyridine] were, in that order, 1.0, 6.57 and 6.55.
Regarding `c1ccc2oc(-c3ccc(Cn4ccnc4)cn3)cc2c1` [Compound 41, 2-Benzo[b]furan-2-yl-5-imidazol-1-ylmethyl-pyridine], the results for the pIC50 on human CYP11B1 and on human CYP11B2 were 6.30 and below 6.00, respectively.
For `CCOC(=O)c1cncn1[C@H](C)c1ccccc1` [ETO, etomidate, reference compound], the pIC50 at human CYP11B2 was 10.00.
